Results as given in ChEMBL document CHEMBL1201862, “PubChem BioAssay data set” (2004).
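Compound exposure: 48 hours, 5 concentrations, 96-well plates. GI50 = concentration required for 50% inhibition of growth.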 Active and inactive are the calls of the source. No stated cut-off is given here; in the data, active = GI50 up to about 1.1 µM and inactive = higher.

Legend:
Assay in all cases: growth of human tumour cells (NCI), 48 h
[1] = system: SN12C
[2] = system: KM12
[3] = system: HCT-15
[4] = system: EKVX
[5] = system: Malme-3M
[6] = system: UACC-62
[7] = system: OVCAR-3
[8] = system: OVCAR-5
[9] = system: SK-OV-3
[10] = system: SF-268
[11] = system: HCT-116
[12] = system: HT-29
[13] = system: SK-MEL-5
[14] = system: K562
[15] = system: OVCAR-8
[16] = system: ACHN
[17] = system: CAKI-1
[18] = system: HOP-62
[19] = system: SK-MEL-28

SMILES	GI50 [1]	GI50 [2]	GI50 [3] [µM]	GI50 [4]	GI50 [5]	GI50 [6]	GI50 [7]	GI50 [8]	GI50 [9]	GI50 [10]	GI50 [11]	GI50 [12]	GI50 [13]	GI50 [14]	GI50 [15]	GI50 [16]	GI50 [17]	GI50 [18]	GI50 [19]
C=C1C(=O)OC2CC(C)C3CC(O)OC(OCC)C3(C)CC12 (stereo not given)	15.8 µM (inactive)	20.6 µM (inactive)	8.38	23.7 µM (inactive)	10.9 µM (inactive)	> 37.6 µM (inactive)	15.3 µM (inactive)	20.2 µM (inactive)	27.5 µM (inactive)	18 µM (inactive)	11.9 µM (inactive)	17.8 µM (inactive)	15.5 µM (inactive)	11.8 µM (inactive)	15.7 µM (inactive)	15.4 µM (inactive)	17.8 µM (inactive)	20.9 µM (inactive)	13 µM (inactive)
O=c1oc2ccccc2n1CCN1CCCCC1	> 100 µM (inactive)	> 100 µM (inactive)	> 100	> 100 µM (inactive)	> 100 µM (inactive)	> 100 µM (inactive)	> 100 µM (inactive)	> 100 µM (inactive)	> 100 µM (inactive)	> 100 µM (inactive)	> 100 µM (inactive)	> 100 µM (inactive)	> 100 µM (inactive)	> 100 µM (inactive)	> 100 µM (inactive)	> 100 µM (inactive)	> 100 µM (inactive)	> 100 µM (inactive)	> 100 µM (inactive)
C[N+](C)([O-])CCCNc1c2ccccc2nc2cccc([N+](=O)[O-])c12	0.265 µM (active)	0.412 µM (active)	0.457	0.28 µM (active)	0.173 µM (active)	0.219 µM (active)	0.308 µM (active)	0.355 µM (active)	0.631 µM (active)	0.274 µM (active)	0.228 µM (active)	0.179 µM (active)	0.161 µM (active)	0.253 µM (active)	0.635 µM (active)	0.324 µM (active)	1.72 µM (inactive)	0.385 µM (active)	0.684 µM (active)
O=c1[nH]c(C23CC4CC(CC(C4)C2)C3)cc2c1c(=O)oc1ccccc12	9.18 µM (inactive)	14.5 µM (inactive)	13.8	0.32 µM (active)	3.65 µM (inactive)	13.4 µM (inactive)	4.42 µM (inactive)	4.82 µM (inactive)	3.25 µM (inactive)	0.944 µM (active)	3.06 µM (inactive)	3.52 µM (inactive)	4.6 µM (inactive)	4.07 µM (inactive)	3.19 µM (inactive)	2.92 µM (inactive)	1.86 µM (inactive)	2.7 µM (inactive)	5.86 µM (inactive)
COc1ccc(C2=C(Cl)C(=O)N(c3ccc(OC)cc3OC)C(=O)C2(Cl)Cl)cc1	< 0.01 µM (active)	17.1 µM (inactive)	14.2	32.8 µM (inactive)	14.6 µM (inactive)	14.5 µM (inactive)	12.5 µM (inactive)	14.4 µM (inactive)	47.3 µM (inactive)	18.1 µM (inactive)	15.5 µM (inactive)	18.1 µM (inactive)	14.9 µM (inactive)	19.8 µM (inactive)	19.5 µM (inactive)	15.7 µM (inactive)	11.9 µM (inactive)	18.5 µM (inactive)	17 µM (inactive)
CCC(=O)c1cc(C(=O)C(=S)SC)cc(C(=O)C(=S)SC)c1	> 100 µM (inactive)	> 100 µM (inactive)	> 60	> 100 µM (inactive)	> 27.3 µM (inactive)	> 100 µM (inactive)	> 54.2 µM (inactive)	> 100 µM (inactive)	> 100 µM (inactive)	> 100 µM (inactive)	> 100 µM (inactive)	> 100 µM (inactive)	> 82.8 µM (inactive)	41.9 µM (inactive)	> 100 µM (inactive)	> 87.1 µM (inactive)	> 100 µM (inactive)	> 100 µM (inactive)	> 100 µM (inactive)
CN(C)c1ccc(/C=C(\NC(=O)c2ccccc2)C2=NC(CCC(=O)O)C(=O)O2)cc1 (stereo not given)	> 50 µM (inactive)	42.8 µM (inactive)	> 50	> 50 µM (inactive)	> 31.3 µM (inactive)	> 50 µM (inactive)	> 50 µM (inactive)	> 50 µM (inactive)	> 50 µM (inactive)	> 50 µM (inactive)	> 50 µM (inactive)	> 50 µM (inactive)	> 48.3 µM (inactive)	> 50 µM (inactive)	> 41.4 µM (inactive)	> 50 µM (inactive)	> 50 µM (inactive)	15.9 µM (inactive)	> 50 µM (inactive)
C/C(=N\Nc1nc2cc(F)ccc2s1)c1ccccn1	0.0101 µM (active)	0.165 µM (active)	< 0.022	< 0.0141 µM (active)	< 0.01 µM (active)	0.123 µM (active)	0.0284 µM (active)	0.716 µM (active)	0.0953 µM (active)	0.0301 µM (active)	< 0.0161 µM (active)	< 0.01 µM (active)	0.053 µM (active)	< 0.0147 µM (active)	0.0194 µM (active)	< 0.01 µM (active)	< 0.01 µM (active)	0.381 µM (active)	0.294 µM (active)
COc1cc2c(cc1O)C(c1cc(O)c(O)c(OC)c1)C(O)(C(=O)O)C(CO)C2O (stereo not given)	16.4 µM (inactive)	> 100 µM (inactive)	> 100	20.7 µM (inactive)	> 100 µM (inactive)	> 100 µM (inactive)	> 100 µM (inactive)	> 100 µM (inactive)	> 100 µM (inactive)	> 100 µM (inactive)	18.3 µM (inactive)	> 100 µM (inactive)	> 100 µM (inactive)	47 µM (inactive)	> 100 µM (inactive)	> 100 µM (inactive)	> 100 µM (inactive)	> 100 µM (inactive)	> 100 µM (inactive)
CC(C)(C)OC(=O)CCCCCNC(=O)CCCCCNC(=O)CCC(CN(CC(=O)OCc1ccccc1)CC(=O)OCc1ccccc1)N(CC(=O)OCc1ccccc1)CC(=O)OCc1ccccc1 (stereo not given)	> 100 µM (inactive)	> 100 µM (inactive)	> 100	> 100 µM (inactive)	> 100 µM (inactive)	> 100 µM (inactive)	> 100 µM (inactive)	> 100 µM (inactive)	> 100 µM (inactive)	> 100 µM (inactive)	> 100 µM (inactive)	> 100 µM (inactive)	> 100 µM (inactive)	25.2 µM (inactive)	> 100 µM (inactive)	> 100 µM (inactive)	43.8 µM (inactive)	> 100 µM (inactive)	> 100 µM (inactive)
C[C@H](N)C(=O)Nc1ccc(-c2nc3ccccc3s2)cc1Cl	15.9 µM (inactive)	15 µM (inactive)	19.6	11.9 µM (inactive)	22.1 µM (inactive)	16.4 µM (inactive)	0.153 µM (active)	0.27 µM (active)	16.4 µM (inactive)	17.9 µM (inactive)	11.6 µM (inactive)	16.7 µM (inactive)	16.1 µM (inactive)	17.1 µM (inactive)	26 µM (inactive)	15.4 µM (inactive)	10.7 µM (inactive)	12.3 µM (inactive)	14 µM (inactive)
COc1ccc(C(NCCNC(c2ccc(OC)c(OC)c2)c2cc3c(cc2O)OCO3)c2cc3c(cc2O)OCO3)cc1OC (stereo not given)	1.92 µM (inactive)	2.67 µM (inactive)	1.85	6.22 µM (inactive)	4.5 µM (inactive)	2.53 µM (inactive)	2.65 µM (inactive)	4.57 µM (inactive)	6.87 µM (inactive)	1.63 µM (inactive)	2.26 µM (inactive)	2.64 µM (inactive)	7.05 µM (inactive)	1.49 µM (inactive)	1.89 µM (inactive)	2.64 µM (inactive)	2.64 µM (inactive)	8.18 µM (inactive)	1.62 µM (inactive)
C[N+](C)(N)CCC[N+](C)(C)N	> 100 µM (inactive)	> 100 µM (inactive)	> 100	> 100 µM (inactive)	> 100 µM (inactive)	> 100 µM (inactive)	> 100 µM (inactive)	> 100 µM (inactive)	> 100 µM (inactive)	> 100 µM (inactive)	> 100 µM (inactive)	> 100 µM (inactive)	> 100 µM (inactive)	> 100 µM (inactive)	> 100 µM (inactive)	> 100 µM (inactive)	> 100 µM (inactive)	> 100 µM (inactive)	> 100 µM (inactive)
Cc1cc(N(CCC#N)CCC#N)ccc1C(=N/NC(=O)c1cc(Cl)ccc1O)/N=N/c1cccc([N+](=O)[O-])c1	28.3 µM (inactive)	23.1 µM (inactive)	25.5	25.1 µM (inactive)	34 µM (inactive)	14.1 µM (inactive)	15.9 µM (inactive)	35 µM (inactive)	34 µM (inactive)	18.7 µM (inactive)	22.2 µM (inactive)	26.7 µM (inactive)	18.1 µM (inactive)	22 µM (inactive)	22.6 µM (inactive)	35.5 µM (inactive)	27 µM (inactive)	24.2 µM (inactive)	28.9 µM (inactive)
O=C([C@H](O)[C@@H](O)c1ccc(Br)cc1)C12CC3CC(CC(C3)C1)C2	17.9 µM (inactive)	13.8 µM (inactive)	13.6	32.4 µM (inactive)	13.9 µM (inactive)	7.82 µM (inactive)	9.25 µM (inactive)	39.4 µM (inactive)	28.4 µM (inactive)	11.6 µM (inactive)	10.4 µM (inactive)	12.7 µM (inactive)	23.6 µM (inactive)	31.5 µM (inactive)	42.8 µM (inactive)	16.3 µM (inactive)	14.9 µM (inactive)	7.6 µM (inactive)	24.7 µM (inactive)
